Measurements published in ChEMBL document CHEMBL1201862, “PubChem BioAssay data set” (2004).
Calls of active or inactive are those of the source.

Legend:
[1] = inhibition of ADAM10 peptide cleavage – biochemical, FRET peptide substrate, recombinant human ADAM10, selectivity assay for ADAM17 exosite inhibitor project, dose response (AID 743259);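 further: ADAM10 enzyme cleaving a FRET peptide substrate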
[2] = biological target: Disintegrin and metalloproteinase domain-containing protein 17 (Homo sapiens, UniProt P78536); assay: exosite inhibitors of ADAM17, dose response, biochemical (AID 743260)
Disintegrin and metalloproteinase domain-containing protein 17, sequence (P78536 whole entry, the tested form may be a part): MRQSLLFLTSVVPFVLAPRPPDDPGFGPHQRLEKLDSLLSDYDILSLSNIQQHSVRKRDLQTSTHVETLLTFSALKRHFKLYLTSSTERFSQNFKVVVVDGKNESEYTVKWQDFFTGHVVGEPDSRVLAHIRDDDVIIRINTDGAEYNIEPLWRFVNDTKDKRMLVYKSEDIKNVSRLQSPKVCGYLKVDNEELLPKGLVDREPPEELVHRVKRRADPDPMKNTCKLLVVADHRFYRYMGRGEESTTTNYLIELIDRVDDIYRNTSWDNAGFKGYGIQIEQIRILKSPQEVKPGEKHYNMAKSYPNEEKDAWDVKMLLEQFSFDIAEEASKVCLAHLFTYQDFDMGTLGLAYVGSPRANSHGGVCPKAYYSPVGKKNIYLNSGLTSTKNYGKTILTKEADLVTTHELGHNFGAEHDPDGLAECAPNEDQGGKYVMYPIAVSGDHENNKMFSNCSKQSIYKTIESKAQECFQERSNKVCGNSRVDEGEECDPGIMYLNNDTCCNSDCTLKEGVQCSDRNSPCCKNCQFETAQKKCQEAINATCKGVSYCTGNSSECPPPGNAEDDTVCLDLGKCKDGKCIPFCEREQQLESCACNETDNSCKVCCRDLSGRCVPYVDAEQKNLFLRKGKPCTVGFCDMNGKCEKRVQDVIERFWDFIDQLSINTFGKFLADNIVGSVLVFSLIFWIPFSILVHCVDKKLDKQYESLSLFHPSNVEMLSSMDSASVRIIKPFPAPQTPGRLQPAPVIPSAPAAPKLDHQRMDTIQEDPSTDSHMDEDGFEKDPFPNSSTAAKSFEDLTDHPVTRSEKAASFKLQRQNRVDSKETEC

[3] = blockers of HIV-1 envelope-mediated cell-cell fusion – cherry-pick, dose response (AID 652057); assay type: functional, cell-based
[4] = viability loss in CEM21 cells – cell-based, CellTiter-Glo luminescence, cherry-picked, cytotoxicity control for viral fusion inhibitor project, dose response (AID 652042); assay type: functional;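 further: potency for signal decrease meaning cytotoxicity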
[5] = viability of uninfected HEp-2 cells – cell-based, HTS, cytotoxicity control for RSV inhibitor project, dose response (AID 2410); assay type: functional; conditions: human respiratory syncytial virus
[6] = off-target signal loss in HeLa-CEM21 co-culture – HeLa F-luc CTL cells, cherry-picked, counter-screen for HIV-1 Env fusion inhibitor project, dose response (AID 652040); assay type: functional, cell-based;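 further: potency for signal decrease marking cytotoxic or nonspecific inhibition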
[7] = HIV-1 AD8 envelope cell-cell fusion blockers – cherry-pick, dose response (AID 652062); assay type: functional, cell-based;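 further: luciferase signal from cell-cell fusion driven by HIV-1 clade B AD8 Env; potency is for inhibitors of fusion seen as a drop in luminescence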
[8] = biological target: Endoplasmic reticulum aminopeptidase 1 (Homo sapiens, UniProt Q9NZ08); assay: inhibition of human ERAP1 enzyme activity – biochemical, cherry-pick, set 2, plate reader, dose response (AID 743314)
Endoplasmic reticulum aminopeptidase 1, sequence (Q9NZ08 whole entry): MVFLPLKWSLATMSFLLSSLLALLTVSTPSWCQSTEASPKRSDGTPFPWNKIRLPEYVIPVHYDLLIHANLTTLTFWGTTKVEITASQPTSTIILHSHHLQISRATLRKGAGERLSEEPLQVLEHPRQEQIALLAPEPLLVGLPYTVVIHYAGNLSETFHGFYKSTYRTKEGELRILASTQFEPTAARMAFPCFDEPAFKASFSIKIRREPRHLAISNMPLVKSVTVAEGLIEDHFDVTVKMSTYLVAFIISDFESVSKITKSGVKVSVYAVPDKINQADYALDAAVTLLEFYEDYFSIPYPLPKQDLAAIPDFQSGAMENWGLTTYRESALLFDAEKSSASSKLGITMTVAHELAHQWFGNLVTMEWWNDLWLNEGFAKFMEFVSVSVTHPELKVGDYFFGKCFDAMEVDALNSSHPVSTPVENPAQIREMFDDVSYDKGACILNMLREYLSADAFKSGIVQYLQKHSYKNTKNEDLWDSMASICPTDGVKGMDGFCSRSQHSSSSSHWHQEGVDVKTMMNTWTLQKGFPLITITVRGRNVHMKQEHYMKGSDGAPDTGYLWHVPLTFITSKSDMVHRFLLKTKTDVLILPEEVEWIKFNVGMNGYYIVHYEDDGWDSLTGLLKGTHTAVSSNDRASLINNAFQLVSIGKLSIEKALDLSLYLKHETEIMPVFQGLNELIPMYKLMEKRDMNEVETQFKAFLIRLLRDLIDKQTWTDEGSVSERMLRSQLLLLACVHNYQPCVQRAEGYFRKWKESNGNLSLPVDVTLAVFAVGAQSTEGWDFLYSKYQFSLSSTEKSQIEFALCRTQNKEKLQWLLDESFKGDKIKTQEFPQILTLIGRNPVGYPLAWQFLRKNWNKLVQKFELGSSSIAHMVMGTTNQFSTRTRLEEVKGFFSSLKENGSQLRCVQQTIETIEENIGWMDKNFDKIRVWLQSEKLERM

[9] = biological target: T1, Tyrosyl-DNA phosphodiesterase 2 (Homo sapiens, UniProt O95551); assay: potency against TDP2 phosphodiesterase activity – biochemical, epi absorbance, IC50, dose response (AID 743297)
T1 sequence (O95551 whole entry): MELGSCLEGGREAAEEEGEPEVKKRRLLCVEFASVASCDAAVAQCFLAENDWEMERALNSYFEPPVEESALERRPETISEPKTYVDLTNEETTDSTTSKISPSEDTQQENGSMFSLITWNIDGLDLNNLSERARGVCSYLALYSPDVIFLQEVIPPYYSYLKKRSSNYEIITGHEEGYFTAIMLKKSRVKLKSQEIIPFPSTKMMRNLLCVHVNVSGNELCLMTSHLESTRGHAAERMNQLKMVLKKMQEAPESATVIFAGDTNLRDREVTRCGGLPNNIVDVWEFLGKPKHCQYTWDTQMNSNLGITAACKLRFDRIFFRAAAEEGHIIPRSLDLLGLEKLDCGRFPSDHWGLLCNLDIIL

[10] = biological target: T2, Sentrin-specific protease 8 (Homo sapiens, UniProt Q96LD8); assay type: functional
T2 sequence (Q96LD8 whole entry): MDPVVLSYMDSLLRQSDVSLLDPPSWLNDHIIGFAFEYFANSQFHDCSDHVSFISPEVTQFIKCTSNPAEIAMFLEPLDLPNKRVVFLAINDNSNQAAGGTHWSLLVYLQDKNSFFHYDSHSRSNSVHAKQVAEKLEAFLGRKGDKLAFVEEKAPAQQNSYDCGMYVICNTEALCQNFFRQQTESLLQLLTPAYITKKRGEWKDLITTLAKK

[11] = biological target: T2, Sentrin-specific protease 8; assay type: functional; remark: listed apart in the source
[12] = biological target: T3, Replicative DNA helicase DnaB (Mycobacterium tuberculosis, UniProt P9WMR3); assay: DnaB intein splicing inhibitors, dose response, biochemical, cell-free fluorescence (AID 449749); assay type: functional
T3 sequence (P9WMR3 whole entry): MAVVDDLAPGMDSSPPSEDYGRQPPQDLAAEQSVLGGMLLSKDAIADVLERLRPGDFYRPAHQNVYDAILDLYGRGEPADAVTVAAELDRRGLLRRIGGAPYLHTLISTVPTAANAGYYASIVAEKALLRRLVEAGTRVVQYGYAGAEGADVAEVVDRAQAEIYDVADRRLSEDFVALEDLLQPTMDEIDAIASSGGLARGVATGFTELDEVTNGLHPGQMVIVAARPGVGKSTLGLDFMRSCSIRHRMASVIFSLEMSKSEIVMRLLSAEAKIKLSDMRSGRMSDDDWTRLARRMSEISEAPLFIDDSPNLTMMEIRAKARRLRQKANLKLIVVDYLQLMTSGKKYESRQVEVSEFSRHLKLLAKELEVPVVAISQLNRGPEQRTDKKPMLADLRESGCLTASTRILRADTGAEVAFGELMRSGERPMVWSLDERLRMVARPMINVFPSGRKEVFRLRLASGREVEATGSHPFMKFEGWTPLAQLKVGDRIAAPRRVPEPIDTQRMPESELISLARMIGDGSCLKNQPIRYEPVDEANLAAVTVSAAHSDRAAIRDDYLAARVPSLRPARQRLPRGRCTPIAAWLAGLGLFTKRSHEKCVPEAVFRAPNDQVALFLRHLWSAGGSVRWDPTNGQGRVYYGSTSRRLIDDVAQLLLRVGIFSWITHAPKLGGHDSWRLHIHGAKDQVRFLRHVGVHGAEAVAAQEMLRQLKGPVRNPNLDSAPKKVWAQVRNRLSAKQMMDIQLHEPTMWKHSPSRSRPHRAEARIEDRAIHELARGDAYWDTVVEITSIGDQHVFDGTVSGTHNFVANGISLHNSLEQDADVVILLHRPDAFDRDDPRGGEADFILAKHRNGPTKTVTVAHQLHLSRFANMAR

[13] = blockers of HIV-1 ZM109 envelope-driven cell-cell fusion – HeLa effector, CEM target cells, luciferase, cherry-pick, dose response (AID 652058); assay type: functional, cell-based;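 further: luciferase signal from HIV-1 Env mediated cell-cell fusion of effector and target cells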
[14] = biological target: T2, Sentrin-specific protease 8; assay type: functional; remark: listed apart in the source
Caspase-3 = biological target: T4, Caspase-3 (Homo sapiens, UniProt P42574); assay type: functional;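 further: Dose-response selectivity test against caspase-3 for candidate inhibitors of sentrin-specific proteases (SENPs)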
T4 sequence (P42574 whole entry): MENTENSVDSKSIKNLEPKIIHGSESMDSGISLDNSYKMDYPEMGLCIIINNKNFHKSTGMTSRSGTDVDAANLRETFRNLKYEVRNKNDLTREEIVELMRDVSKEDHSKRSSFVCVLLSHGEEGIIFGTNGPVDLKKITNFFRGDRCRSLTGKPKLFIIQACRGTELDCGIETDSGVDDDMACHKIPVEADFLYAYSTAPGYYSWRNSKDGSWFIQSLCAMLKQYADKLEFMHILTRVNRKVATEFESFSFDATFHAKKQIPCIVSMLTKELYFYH

[15] = biological target: T5, Sentrin-specific protease 7 (Homo sapiens, UniProt Q9BQF6); assay type: functional;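 further: Luminescence-based dose-response confirmation of ultra-high-throughput screening hits, measuring inhibition of SENP7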
T5 sequence (Q9BQF6 whole entry): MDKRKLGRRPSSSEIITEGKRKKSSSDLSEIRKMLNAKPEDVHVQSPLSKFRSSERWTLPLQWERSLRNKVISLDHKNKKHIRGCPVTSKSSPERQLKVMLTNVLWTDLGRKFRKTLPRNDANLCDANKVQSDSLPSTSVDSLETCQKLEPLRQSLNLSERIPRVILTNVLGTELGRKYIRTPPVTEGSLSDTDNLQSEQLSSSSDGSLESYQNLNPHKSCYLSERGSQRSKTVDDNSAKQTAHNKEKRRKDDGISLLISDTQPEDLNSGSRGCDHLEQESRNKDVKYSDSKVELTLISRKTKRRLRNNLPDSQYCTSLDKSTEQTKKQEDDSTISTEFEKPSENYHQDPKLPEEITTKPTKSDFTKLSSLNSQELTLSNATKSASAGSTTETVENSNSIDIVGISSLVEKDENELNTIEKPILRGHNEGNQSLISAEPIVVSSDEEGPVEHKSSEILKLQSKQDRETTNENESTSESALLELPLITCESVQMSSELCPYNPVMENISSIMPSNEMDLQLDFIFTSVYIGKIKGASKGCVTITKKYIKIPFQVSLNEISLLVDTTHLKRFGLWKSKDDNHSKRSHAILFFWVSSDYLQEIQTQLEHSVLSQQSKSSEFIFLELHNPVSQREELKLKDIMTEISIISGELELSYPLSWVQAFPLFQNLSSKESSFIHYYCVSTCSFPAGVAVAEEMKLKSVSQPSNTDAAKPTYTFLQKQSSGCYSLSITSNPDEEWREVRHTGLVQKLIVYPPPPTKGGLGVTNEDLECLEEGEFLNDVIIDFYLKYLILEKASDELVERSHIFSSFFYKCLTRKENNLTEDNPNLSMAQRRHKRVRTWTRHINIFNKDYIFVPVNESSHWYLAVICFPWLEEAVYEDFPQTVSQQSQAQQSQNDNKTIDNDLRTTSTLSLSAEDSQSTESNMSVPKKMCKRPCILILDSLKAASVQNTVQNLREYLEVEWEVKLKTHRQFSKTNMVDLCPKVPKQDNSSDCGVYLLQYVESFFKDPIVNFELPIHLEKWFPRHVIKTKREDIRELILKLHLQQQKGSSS

[16] = biological target: T6, Heat shock factor protein 1 (Mus musculus, UniProt P38532); assay: enhancement of HSF1-driven luciferase signal – cell-based, NIH3T3, luminescence, dose retest, confirmation (AID 435004); assay type: functional;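 further: stress induced by proteasome inhibitor MG132 added 30 min after compound; luciferase reporter driven by HSF1 response element in NIH3T3 cells; actives raise luminescence as potentiators of the MG132 stress response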
T6 sequence (P38532 whole entry): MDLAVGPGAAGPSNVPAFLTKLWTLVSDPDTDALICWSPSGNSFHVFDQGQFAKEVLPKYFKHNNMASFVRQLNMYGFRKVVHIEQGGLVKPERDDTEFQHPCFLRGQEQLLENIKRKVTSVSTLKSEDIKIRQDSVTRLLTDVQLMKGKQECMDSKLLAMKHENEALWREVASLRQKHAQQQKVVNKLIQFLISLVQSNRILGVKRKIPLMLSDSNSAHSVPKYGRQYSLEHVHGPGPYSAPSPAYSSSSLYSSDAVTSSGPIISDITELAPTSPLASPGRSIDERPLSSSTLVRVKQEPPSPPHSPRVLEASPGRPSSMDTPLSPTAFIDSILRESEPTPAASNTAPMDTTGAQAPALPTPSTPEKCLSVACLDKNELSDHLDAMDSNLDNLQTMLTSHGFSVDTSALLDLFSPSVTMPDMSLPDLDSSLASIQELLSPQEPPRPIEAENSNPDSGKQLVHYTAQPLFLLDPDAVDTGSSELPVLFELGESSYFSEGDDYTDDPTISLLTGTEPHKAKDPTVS

INS1 = assay: INS-1E survival protection against cytokine death – cell-based, luminescence, retest, dose response (AID 449756); assay type: functional; conditions: Rattus norvegicus;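 further: cell death triggered by IL-1 beta plus TNF-alpha plus IFN-gamma mixture; protective hits raise ATP signal compared with cytokine alone wells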
[17] = biological target: T7, Sentrin-specific protease 6 (Homo sapiens, UniProt Q9GZR1); assay type: functional;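 further: Luminescence-based dose-response confirmatory assay of SENP6 inhibition, following up an ultra-high-throughput screen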
T7 sequence (Q9GZR1 whole entry): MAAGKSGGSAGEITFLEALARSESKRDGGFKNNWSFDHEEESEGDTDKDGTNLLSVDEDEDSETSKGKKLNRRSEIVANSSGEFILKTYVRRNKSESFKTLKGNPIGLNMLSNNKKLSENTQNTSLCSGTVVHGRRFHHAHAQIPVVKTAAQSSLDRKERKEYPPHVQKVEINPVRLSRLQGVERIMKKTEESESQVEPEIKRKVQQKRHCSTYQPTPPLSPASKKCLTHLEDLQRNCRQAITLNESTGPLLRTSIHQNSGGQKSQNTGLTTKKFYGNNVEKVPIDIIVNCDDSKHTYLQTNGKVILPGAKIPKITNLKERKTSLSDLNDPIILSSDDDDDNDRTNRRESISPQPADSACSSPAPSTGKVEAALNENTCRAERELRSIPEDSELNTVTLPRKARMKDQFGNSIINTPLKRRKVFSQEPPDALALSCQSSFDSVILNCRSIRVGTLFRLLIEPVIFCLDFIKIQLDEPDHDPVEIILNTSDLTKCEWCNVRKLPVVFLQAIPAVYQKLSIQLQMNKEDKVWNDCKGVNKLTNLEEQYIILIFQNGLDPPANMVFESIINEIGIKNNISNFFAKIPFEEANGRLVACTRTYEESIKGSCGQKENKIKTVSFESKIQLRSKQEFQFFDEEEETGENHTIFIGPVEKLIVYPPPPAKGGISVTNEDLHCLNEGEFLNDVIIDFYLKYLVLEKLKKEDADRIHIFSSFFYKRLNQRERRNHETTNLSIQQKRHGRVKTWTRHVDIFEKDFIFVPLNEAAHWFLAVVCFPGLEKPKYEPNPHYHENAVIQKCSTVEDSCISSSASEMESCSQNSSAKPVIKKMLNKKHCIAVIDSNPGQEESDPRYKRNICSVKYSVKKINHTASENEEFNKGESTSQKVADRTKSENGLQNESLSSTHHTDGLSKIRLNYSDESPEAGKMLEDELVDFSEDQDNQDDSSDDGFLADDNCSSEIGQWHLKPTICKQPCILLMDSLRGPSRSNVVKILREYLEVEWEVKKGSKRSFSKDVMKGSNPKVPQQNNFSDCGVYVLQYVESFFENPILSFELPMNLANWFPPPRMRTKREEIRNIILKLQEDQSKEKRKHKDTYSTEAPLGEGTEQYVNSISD

[18] = microbe, parasite or virus in culture; assay type: functional; conditions: Mycobacterium tuberculosis

COc1ccc(NC(C)C(=O)N/N=C/c2ccccc2OCc2ccc(Br)cc2)cc1 (stereo not given)
IC50 [1]: > 69.5 µM (inactive) | IC50 [2]: > 69.5 µM (inactive)

Clc1ccc(OCCOCCOc2cccc3cccnc23)c(Br)c1
IC50 [1]: > 69.5 µM (inactive) | IC50 [2]: > 69.5 µM (inactive)

Cc1n[nH]c2c1C1(C(=O)N(Cc3ccc(Cl)cc3)c3ccccc31)C(C#N)=C(N)O2 (stereo not given)
AC50 [3]: 3.62 µM (active) | AC50 [4]: 59.1 µM (active) | CC50 [5]: 25.1 µM (active) | AC50 [6]: 55.2 µM (active) | AC50 [7]: 39.6 µM (active)

CN1[C@@H]2Cn3c(ccc(/C=C/c4ccccc4)c3=O)[C@H]1[C@@H](C(=O)NC1CCCC1)[C@@H]2CO
AC50 [8]: 9.03 µM (active)

Nc1ccc(N2CCOCC2)c2nonc12
IC50 [9]: > 128 µM (inactive) | IC50 [10]: 3.67 µM (active) | IC50 [11]: 2.98 µM (active) | AC50 [12]: 18.8 µM (active)

CCCCCCCCN1C(=O)[C@H](CC(=O)N2CCCCC2)C[C@@]2(C(=O)OCC)CCCC=C12
AC50 [3]: 8.73 µM (active) | AC50 [4]: 37.2 µM (active) | AC50 [13]: 13.9 µM (active) | AC50 [6]: > 70 µM (inactive) | AC50 [7]: 0.465 µM (active)

CN(C)c1ccc2c(c1)[C@@H]1C[C@H](CC(=O)NCc3ccc(-c4ccccc4)cc3)O[C@@H](CO)[C@@H]1O2
AC50 [3]: < 0.26 µM (active) | AC50 [4]: 40.9 µM (active) | AC50 [7]: 2.51 µM (active)

S=C(Nc1ccc(Cl)cc1)Nc1cccc2cnccc12
IC50 [9]: 130 µM (inactive) | IC50 [14]: 5.49 µM (active) | IC50 (Caspase-3): 11.7 µM (active) | IC50 [15]: 6.24 µM (active) | EC50 [16]: > 260 µM (inactive) | AC50 (INS1): > 260 µM (inactive) | IC50 [17]: 2.87 µM (active) | CC50 [18]: > 40 µM (active)
